Test results: patent publication US20100168105A1, “Spirocyclopropyl Piperidine Derivatives” (priority 2007, published 2010)
pIC50: −log10 of the molar value.

What was measured:
[1] = biological target: human histamine H3 receptors (full-length H3, isoform 445) (Homo sapiens, UniProt Q9Y5N1); settings: hH3 binding IC50 (nM), inhibition of 1.4 nM [3H]-N-α-methylhistamine binding to CHO-K1 membranes expressing human H3, SPA, 1.5 hr;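 note: scintillation counts read after the 1.5 hr incubation at room temperature with shaking, Imetit serving as reference control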
Sequence of human histamine H3 receptors (full-length H3, isoform 445) (Q9Y5N1 whole entry, canonical isoform): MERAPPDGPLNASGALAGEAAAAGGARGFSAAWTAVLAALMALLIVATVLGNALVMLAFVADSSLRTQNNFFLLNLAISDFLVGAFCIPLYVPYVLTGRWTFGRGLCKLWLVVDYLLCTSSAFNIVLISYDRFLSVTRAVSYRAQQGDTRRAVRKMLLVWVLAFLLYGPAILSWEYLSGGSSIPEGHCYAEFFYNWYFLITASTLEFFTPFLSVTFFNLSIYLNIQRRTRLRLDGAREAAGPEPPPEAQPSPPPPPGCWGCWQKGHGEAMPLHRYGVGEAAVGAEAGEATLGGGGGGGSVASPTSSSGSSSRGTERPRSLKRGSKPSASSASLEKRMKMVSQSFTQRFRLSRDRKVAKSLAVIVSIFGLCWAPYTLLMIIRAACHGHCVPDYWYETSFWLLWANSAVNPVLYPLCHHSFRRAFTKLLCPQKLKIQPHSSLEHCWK
Experimental: Histamine H3 SPA with the Agonist Radioligand [^3H]—N-α-methylhistamine
Reproducibility of the assay is such that IC50 curves can be generated in singlicate. Single poke (SP) testing was done in triplicate.
Membranes, prepared from CHO-K1 cells stably expressing the human histamine H3 receptor, were obtained from ACS.
Tested formula I compounds were provided as solubilized samples in neat DMSO. Serial dilutions were performed in DMSO.
Plates were read on a Perkin Elmer TopCount. CPM data were used to analyze unless DPM data generated by a quench curve were required.
• 1. 1 mg/ml BSA was added to assay buffer (AB) on day of assay. • 2. […] Buffer volume was split between beads and membranes to allow for polytroning of membranes prior to addition to beads. • a. […] Waited a minimum of 15 minutes prior to adding membranes (See b. below.). • b. […] The homogenized membrane mixture was combined with the beads and a minimum of 30 minutes was waited prior to dispensing to plate. • 3. Formula I compounds: For Single Poke, 2 μl 1 mM of a compound in accordance with formula I was dispensed to Optiplates (triplicate plates) for final concentration of 10 μM. […] Imetit (see below) was used as a control. • 4. […] 5 μl samples were calculated in quadruplicate on the β counter. […] (For IC50s, use final concentration on calculation tab of ABase template.)
• 1. […] 2 μl of the formula I compound dilution was mixed and then transferred into assay plates. DMSO was removed and 2 μl of 100 μM Imetit was added to the wells. • 3. 178 μl bead/membrane mixture was dispensed into the assay plate. • 4. 20 μl [^3H]-NAMH was added with Rapid Plate. The assay plate was sealed and incubated for 1.5 hr on RT shaker at speed ˜6.5. • 5. The assay plate was subsequently centrifuged at 1000 rpm for 10 minutes. • 6. The count was performed on TopCount using one of the 3H SPA H3 Quench programs.
The DPM data was analyzed when tSIS was less than that associated with 70% of full scale on the quench curve (tSIS<25%). Otherwise, CPM data was used.

[2] = biological target: T1, human Histamine H3 receptor (hH3R) (Homo sapiens, UniProt Q9Y5N1); assay: Guanosine 5'-O-(3-[35S]thio)triphosphate [GTPγS] Binding Assay; assay type: biochemical; settings: antagonist activity; membranes from CHO cells expressing hH3R, (R)-α-methyl histamine 30 nM, [35S]GTPγS 0.2 nM, 90 minutes
T1 construct: expressed in transfected cells; host or cells: CHO cells (membranes)
T1 sequence (Q9Y5N1 whole entry): as the sequence (Q9Y5N1 whole entry, canonical isoform) above
Experimental: Guanosine 5′-O-(3-[^35]thio)triphosphate [GTPγS] Binding Assay
The GTPγS binding assay can be used to investigate antagonist properties of compounds in CHO cells (Chinese Hamster Ovary) transfected with human Histamine H3 receptor (hH3R). […] To determine antagonist activity, (R)-α-methyl histamine (30 nM) is added in 96 well SPA plate with [^35S]GTPγS (0.2 nM) and various concentration of H3R antagonists. The GTPγS binding assay is started with addition of the mixture membrane/saponine/GDP and incubated for 90 minutes at room temperature. The amount of bound [^35S]GTPγS is determined by using the MicroBeta Trilux counter (PerkinElmer). The percentage of [^35S]GTPγS bound in each sample is calculated as a percentage of that bound control sample incubated in absence of H3 antagonist. Duplicate determinations are obtained for each concentration, and the data are analyzed using ExcelFit4 to obtain the IC50.

Compound | IC50 [1] | pIC50 [2]
O=C(C1CC12CCN(C1CCOCC1)CC2)N1CCN(C2CCC2)CC1 (stereo not drawn) [Example 8, (4-Cyclobutylpiperazin-1-yl)(6-(tetrahydro-2H-pyran-4-yl)-6-azaspiro[2.5]octan-1-yl)methanone] | 4.1 nM | 8.44
O=C(C1CC12CCN(C1CCC1)CC2)N1CCN(C2CCOCC2)CC1 (stereo not drawn) [Example 22, (6-Cyclobutyl-6-aza-spiro[2.5]oct-1-yl)-[4-(tetrahydro-pyran-4-yl)-piperazin-1-yl]-methanone] | 209 nM | 7.17
O=C(C1CC12CCN(C1CCOC1)CC2)N1CCN(C2CCC2)CC1 (stereo not drawn) [Example 33, (4-Cyclobutyl-piperazin-1-yl)-[6-(tetrahydro-furan-3-yl)-6-aza-spiro[2.5]oct-1-yl]-methanone] | 35.1 nM | 8.26
O=C(C1CC12CCN(CCc1ccccc1)CC2)N1CCN(C2CCCCC2)CC1 (single isomer, unassigned) [Example 17, (4-Cyclohexyl-piperazin-1-yl)-(6-phenethyl-6-aza-spiro[2.5]oct-1-yl)-methanone] | 27.4 nM | 7.79
O=C(C1CC12CCN(C1CCOCC1)CC2)N1CCN(c2ccncc2)CC1 (stereo not drawn) [Example 14, (4-Pyridin-4-yl-piperazin-1-yl)-[6-(tetrahydro-pyran-4-yl)-6-aza-spiro[2.5]oct-1-yl]-methanone] | 26.1 nM | 6.86
O=C(C1CC12CCN(C1CCCCC1)CC2)N1CCN(C2CCCCC2)CC1 (stereo not drawn) [Example 19, (6-Cyclohexyl-6-aza-spiro[2.5]oct-1-yl)-(4-cyclohexyl-piperazin-1-yl)-methanone] | 56.5 nM | 8.00
O=C(C1CC12CCN(CCc1ccccc1)CC2)N1CCN(C2CCCCC2)CC1 (single isomer, unassigned) [Example 18, (4-Cyclohexyl-piperazin-1-yl)-(6-phenethyl-6-aza-spiro[2.5]oct-1-yl)-methanone] | 407 nM | 6.90
CN1CCC(N2CCC3(CC2)CC3C(=O)N2CCN(C3CCCCC3)CC2)CC1 (stereo not drawn) [Example 20, (4-Cyclohexyl-piperazin-1-yl)-[6-(1-methyl-piperidin-4-yl)-6-aza-spiro[2.5]oct-1-yl]-methanone] | 97.2 nM | 7.65
O=C(C1CC12CCN(C1CCOCC1)CC2)N1CCN(C2CCCCC2)CC1 (stereo not drawn) [Example 1, (4-Cyclohexyl-piperazin-1-yl)-[6-(tetrahydro-pyran-4-yl)-6-aza-spiro[2.5]oct-1-yl]-methanone] | 33.6 nM | 7.89
O=C(C1CC12CCN(C1CCCSC1)CC2)N1CCN(C2CCC2)CC1 (stereo not drawn) [Example 30, (4-Cyclobutyl-piperazin-1-yl)-[6-(tetrahydro-thiopyran-3-yl)-6-aza-spiro[2.5]oct-1-yl]-methanone] | 10.1 nM | 7.84
CC(C)N1CCN(C(=O)C2CC23CCN(C2CCOCC2)CC3)CC1 (stereo not drawn) [Example 10, (4-Isopropylpiperazin-1-yl)(6-(tetrahydro-2H-pyran-4-yl)-6-azaspiro[2.5]octan-1-yl)methanone] | 9.02 nM | 8.49
O=C(C1CC12CCN(CCN1CCOCC1)CC2)N1CCN(C2CCC2)CC1 (stereo not drawn) [Example 34, (4-Cyclobutyl-piperazin-1-yl)-[6-(2-morpholin-4-yl-ethyl)-6-aza-spiro[2.5]oct-1-yl]-methanone] | 24.4 nM | 7.87
CN1CCN(C(=O)C2CC23CCN(C2CCOCC2)CC3)CC1 (stereo not drawn) [Example 7, (4-Methyl-piperazin-1-yl)-[6-(tetrahydro-pyran-4-yl)-6-aza-spiro[2.5]oct-1-yl]-methasone] | 1400 nM | 5.92
O=C(C1CC12CCN(c1ccncc1)CC2)N1CCN(C2CCCCC2)CC1 (stereo not drawn) [Example 35, (4-Cyclohexyl-piperazin-1-yl)-(6-pyridin-4-yl-6-aza-spiro[2.5]oct-1-yl)-methanone] | 165 nM | 7.07
CC(C)N1CCN(C(=O)C2CC23CCN(C2CCOCC2)CC3)CC1 (single isomer, unassigned) [Example 28, (4-Isopropyl-piperazin-1-yl)-[6-(tetrahydro-pyran-4-yl)-6-aza-spiro[2.5]oct-1-yl]-methanone] | 2.66 nM | 7.88
